Several values for one entry are separate records, joined by “and”; a condition that tells them apart may be missing. Identical values can stand only once.
Legend:
[1] = system: CA3 pyramidal neurons in hippocampus; assay: Giant depolarizing potentials (GDPs) current density in CA3 pyramidal neurons, hippocampal slices, whole-cell recordings; type: cell-based, mice; conditions: for GDPs current density (normalized): individual cells; for activity at 0.1 µM / activity at 0.3 µM / activity at 1 µM / activity at 3 µM / activity at 10 µM: Mus musculus, Pyramidal neuron, mean, read-out: GDPs current density, Mean (normalized); for block of GDPs in CA3 pyramidal neurons: in words
Source text: FIG. 2. Brain slice (hippocampus) with electrical stimulation and recording
FIG. 3. Normalized GDP current density in CA3 pyramidal neurons in presence of NKCC1 inhibitor
Panel A. Normalized GDP current density in CA3 pyramidal neurons according to the concentration of compound 57 in μM Panel B. Normalized GDP current density in CA3 pyramidal neurons according to the concentration of compound 51 in μM Panel C. Normalized GDP current density in CA3 pyramidal neurons according to the concentration of compound 57 and compound 51 in μM.
51 and 57 were tested to evaluate their basic neuronal intrinsic properties and excitability. Current-clamp whole-cell recordings were performed in CA3 pyramidal neurons in hippocampal slices from P14-15 mice with a bipolar stimulation electrode (FIG. 2).

CA1 pyramidal neurons = assay: Seizure-like events (SLE) triggered by tetanus stimulation of stratum radiatum in hippocampus, cell-attached recording; type: cell-based; conditions: for anticonvulsive activity / suppression of GABAAR-mediated depolarization during SLEs: 2 μM, in words
Method: (§1) FIG. 4. Cell-attached recording Tetanus in CA1 pyramidal neurons in presence of compound 51 (20 stimulus, 100 Hz, 4 consecutive traces superimposed), expressed in picoampere per second. The upper bars are representing the 100 Hz stimulation of stratum radiatum in control conditions, and the lower bars are representing 30 minutes after application of 2 μM of compound 51.
as §1, with “5.” for “4.”, “57” for “51”, “57.” for “51.”
FIG. 6. Post-tetanus frequency (normalized) in presence or not of 2 μM of compound 51 (withing 20 seconds window s after tetanus stimulation) (paired two-tailed t test: p=1*e^−4, n=5 cells). The error bars represent standard error of the mean.
FIG. 7. Post-tetanus frequency (normalized) in presence or not of 2 μM of compound 57 (withing 20 seconds window s after tetanus stimulation) (paired two-tailed t test: p=1*e^−4, n=5 cells). The error bars represent standard error of the mean.
Use of a NKCC1 inhibitor to block the activation of NKCC1 can reduce the [Cl^−]i, and thereby attenuate the excitatory GABAAR responses during epilepsy. Therefore, anticonvulsant effects of 51 on modulating the GABA polarity in acute seizure models was investigated. The seizure-like events in CA1 pyramidal neurons were triggered by tetanic stimulation of stratum radiatum in hippocampus by 51 (FIG. 4) and 57 (FIG. 5).

SMILES	GDPs current density (normalized) ([1]; 0.1 μM)	GDPs current density (normalized) ([1]; 0.3 μM)	GDPs current density (normalized) ([1]; 1 μM)	GDPs current density (normalized) ([1]; 3 μM)	GDPs current density (normalized) ([1]; 10 μM)	activity at 0.1 µM ([1]; 0.1 μM) [%]	activity at 0.3 µM ([1]; 0.3 μM) [%]	activity at 1 µM ([1]; 1 μM) [%]	activity at 3 µM ([1]; 3 μM) [%]	activity at 10 µM ([1]; 10 μM) [%]	block of GDPs in CA3 pyramidal neurons [1]	anticonvulsive activity (CA1 pyramidal neurons)	suppression of GABAAR-mediated depolarization during SLEs (CA1 pyramidal neurons)	activity at 2 µM (CA1 pyramidal neurons; Pyramidal neuron, 0.5 h, fraction of control, n=5, two-tailed paired t-test, p=5*e^−4, read-out: post-tetanus spike frequency, of control) [%]
CCCCNc1cc(C(=O)O)cc(S(=N)(=O)NC)c1Oc1ccccc1 (stereo not drawn) [Compound 51, 3-(butylamino)-5-(methylaminosulfonimidoyl)-4-phenoxy-benzoic acid]	0.6538 and 1.003 and 0.8458 and 0.6095 and 0.2984	0.2304 and 0.3999 and 0.22 and 0.9979 and 1.222 and 0.1863	0.2253 and 0.1713 and 0.1814 and 0.3747 and 0.3549 and 0.1282 and 0.4268	0.1082 and 0.484 and 0.1443 and 0.1442 and 0.08715 and 0 and 0.175	0.1092 and 0 (2×) and 0.04 (2×) and 0.05	68.2	54.3	26.6	16.3	3.99	able to block GDPs	potent anticonvulsive activity	potently suppressed	27 ± 7
CCCCNc1cc(C(=O)O)cc(S(=N)(=O)Nc2ccccc2)c1Oc1ccccc1 (stereo not drawn) [Compound 57, 3-(anilinosulfonimidoyl)-5-(butylamino)-4-phenoxy-benzoic acid]	1.067 and 0.6415 and 0.36 and 0.7716 and 1.279 and 0.8652 and 0.5079 and 0.901	0.3666 and 0.448 and 0.5922 and 0.1844 and 0.9957 and 0.5556 and 0.7164	0.5108 and 0.3317 and 0.1389 and 0.1288 and 0.09779 and 0.191 and 0.2683 and 0.352	0.06999 and 0.4997 and 0.2222 and 0.0431 and 0.2732 and 0.2642 and 0	0.06399 and 0.2068 and 0 (3×)	79.9	55.1	25.2	19.6	5.42	able to block GDPs	potent anticonvulsive activity	potently suppressed	–
